Assay results taken from ChEMBL document CHEMBL3632524, “3-(2,6-Dichloro-benzyloxy)-11-oxo-olean-12-ene-29-oic acid, a semisynthetic derivative of glycyrrhetic acid: synthesis, antiproliferative, apoptotic and anti-angiogenesis activity” (Medchemcomm, 2015).
pIC50: −log10 of the molar value. Active and inactive are the calls of the source. The calls are words filed in the database; no cut-off is given here.

Key:
[1] = tested on: PC-3; experiment: Antiproliferative activity against human PC3 cells assessed as cell viability after 48 hrs by MTT assay; assay type: functional, cell-based; details: PC-3, 48 h
[2] = Antiproliferative activity against human MIAPaCa2 cells assessed as cell viability after 48 hrs by MTT assay; assay type: functional, cell-based; details: MIA PaCa-2, 48 h
[3] = tested on: HepG2; experiment: Antiproliferative activity against human HepG2 cells assessed as cell viability after 48 hrs by MTT assay; assay type: functional, cell-based; details: HepG2, 48 h
[4] = tested on: MIA PaCa-2; experiment: Antiproliferative activity against human MIAPaCa2 cells assessed as cell viability by MTT assay; assay type: functional, cell-based; details: TDE = time-dependent effect
[5] = tested on: PC-3; experiment: Cell cycle arrest in human PC3 cells assessed as accumulation at sub G1 phase after 24 hrs by propidium iodide based flow cytometry; assay type: functional
[6] = tested on: PC-3; experiment: Cell cycle arrest in human PC3 cells assessed as accumulation at sub G1 phase at 5 uM after 24 hrs by propidium iodide based flow cytometry (reference value: 3%); assay type: functional
[7] = tested on: PC-3; experiment: Cell cycle arrest in human PC3 cells assessed as accumulation at sub G1 phase at 10 uM after 24 hrs by propidium iodide based flow cytometry (reference value: 3%); assay type: functional
[8] = tested on: PC-3; experiment: Cell cycle arrest in human PC3 cells assessed as accumulation at sub G1 phase at 20 uM after 24 hrs by propidium iodide based flow cytometry (reference value: 3%); assay type: functional
[9] = tested on: PC-3; experiment: Cell cycle arrest in human PC3 cells assessed as accumulation at G1 phase at 5 uM after 24 hrs by propidium iodide based flow cytometry (reference value: 50%); assay type: functional
[10] = tested on: PC-3; experiment: Cell cycle arrest in human PC3 cells assessed as accumulation at G1 phase at 10 uM after 24 hrs by propidium iodide based flow cytometry (reference value: 50%); assay type: functional
[11] = tested on: PC-3; experiment: Cell cycle arrest in human PC3 cells assessed as accumulation at G1 phase at 20 uM after 24 hrs by propidium iodide based flow cytometry (reference value: 50%); assay type: functional
[12] = tested on: PC-3; experiment: Cell cycle arrest in human PC3 cells assessed as accumulation at S phase at 5 uM after 24 hrs by propidium iodide based flow cytometry (reference value: 30%); assay type: functional
[13] = tested on: PC-3; experiment: Cell cycle arrest in human PC3 cells assessed as accumulation at S phase at 10 uM after 24 hrs by propidium iodide based flow cytometry (reference value: 30%); assay type: functional
[14] = tested on: PC-3; experiment: Cell cycle arrest in human PC3 cells assessed as accumulation at S phase at 20 uM after 24 hrs by propidium iodide based flow cytometry (reference value: 30%); assay type: functional
[15] = tested on: PC-3; experiment: Cell cycle arrest in human PC3 cells assessed as accumulation at G2 phase at 5 uM after 24 hrs by propidium iodide based flow cytometry (reference value: 20%); assay type: functional
[16] = tested on: PC-3; experiment: Cell cycle arrest in human PC3 cells assessed as accumulation at G2 phase at 10 uM after 24 hrs by propidium iodide based flow cytometry (reference value: 20%); assay type: functional
[17] = tested on: PC-3; experiment: Cell cycle arrest in human PC3 cells assessed as accumulation at G2 phase at 20 uM after 24 hrs by propidium iodide based flow cytometry (reference value: 20%); assay type: functional
[18] = tested on: PC-3; experiment: Cell cycle arrest in human PC3 cells assessed as accumulation at S phase after 24 hrs by propidium iodide based flow cytometry; assay type: functional
[19] = tested on: PC-3; experiment: Induction of apoptosis in human PC3 cells assessed as nuclear condensation after 24 hrs by fluorescence microscopic analysis; assay type: functional, cell-based
[20] = tested on: PC-3; experiment: Induction of apoptosis in human PC3 cells assessed as membrane blebbing after 24 hrs by fluorescence microscopic analysis; assay type: functional, cell-based
[21] = tested on: PC-3; experiment: Induction of apoptosis in human PC3 cells assessed as apoptotic bodies after 24 hrs by fluorescence microscopic analysis; assay type: functional, cell-based
[22] = tested on: PC-3; experiment: Disruption of mitochondrial membrane potential in human PC3 cells at 5 uM after 24 hrs by rhodamine-123 based fluorescence assay (reference value: 5%); assay type: functional
[23] = tested on: PC-3; experiment: Disruption of mitochondrial membrane potential in human PC3 cells at 10 uM after 24 hrs by rhodamine-123 based fluorescence assay (reference value: 5%); assay type: functional
[24] = tested on: PC-3; experiment: Disruption of mitochondrial membrane potential in human PC3 cells at 20 uM after 24 hrs by rhodamine-123 based fluorescence assay (reference value: 5%); assay type: functional
[25] = tested on: PC-3; experiment: Down regulation of Bcl-2 in human PC3 cells at 10 to 20 uM after 24 hrs by western blot analysis; assay type: functional, cell-based
[26] = tested on: PC-3; experiment: Induction of apoptosis in human PC3 cells assessed as translocation of Bax from cytosol to mitochondria at 5 to 20 uM after 24 hrs by western blot analysis; assay type: functional, cell-based
[27] = tested on: PC-3; experiment: Down regulation of procaspase-8 expression in human PC3 cells at 5 to 20 uM after 24 hrs by western blot analysis; assay type: functional, cell-based
[28] = Up regulation of PARP-1 expression in human PC3 cells at 5 to 20 uM after 24 hrs by western blot analysis; assay type: functional, cell-based; details: PC-3
[29] = tested on: PC-3; experiment: Induction of apoptosis in human PC3 cells assessed as decrease in Bcl2 to Bax ratio at 5 to 20 uM after 24 hrs by western blot analysis (reference value: 5); assay type: functional
[30] = tested on: HUVEC; experiment: Antiangiogenic activity in HUVEC assessed as wound closure level at 20 uM after 24 hrs by wound healing assay (reference value: 100%); assay type: functional, Homo sapiens
[31] = tested on: PC-3; experiment: Antiangiogenic activity in human PC3 cells assessed as VEGF-induced migration at 5 to 30 uM after 24 hrs by wound healing assay; assay type: functional, cell-based
[32] = tested on: HUVEC; experiment: Antiangiogenic activity in HUVEC assessed as VEGF-induced migration after 24 hrs by wound healing assay; assay type: functional, cell-based; details: Homo sapiens
[33] = tested on: PC-3; experiment: Antiproliferative activity against human PC3 cells assessed as cell viability after 6 hrs by MTT assay; assay type: functional, cell-based; details: PC-3, 6 h
[34] = tested on: PC-3; experiment: Antiproliferative activity against human PC3 cells assessed as cell viability after 12 hrs by MTT assay; assay type: functional, cell-based; details: PC-3, 12 h
[35] = tested on: PC-3; experiment: Antiproliferative activity against human PC3 cells assessed as cell viability after 18 hrs by MTT assay; assay type: functional, cell-based; details: PC-3, 18 h
[36] = tested on: PC-3; experiment: Antiproliferative activity against human PC3 cells assessed as cell viability after 24 hrs by MTT assay; assay type: functional, cell-based; details: PC-3, 24 h

`CC1(C)[C@@H](OCc2c(Cl)cccc2Cl)CC[C@]2(C)[C@H]3C(=O)C=C4[C@@H]5C[C@@](C)(C(=O)O)CC[C@]5(C)CC[C@@]4(C)[C@]3(C)CC[C@@H]12` showed a pIC50 [1] of 5.22, a pIC50 [2] of 5.15 and a pIC50 [3] of 4.72. For the same molecule, the Activity [4] was “tde”, the Activity [5] was “Dose-dependent effect” and the Activity [6] was 8%. For the same molecule, the Activity [7] was 12%, the Activity [8] was 37% and the Activity [9] was 59%. The Activity [10] was 51%, the Activity [11] was 44% and the Activity [12] was 40%. The Activity [13] was 42%, the Activity [14] was 53% and the Activity [15] was 1%. For the same molecule, the Activity [16] was 7%, the Activity [17] was 4% and the Activity [18] was “Dose-dependent effect”. The Activity [19] was “Dose-dependent effect”, the Activity [20] was “Dose-dependent effect” and the Activity [21] was “Dose-dependent effect”. It also gave an Activity [22] of 12%, an Activity [23] of 15% and an Activity [24] of 38%. For the same molecule, the Activity [25] was “Active”, the Activity [26] was “Active” and the Activity [27] was “Active”. The Activity [28] was “Active”, the Ratio [29] was 0.5 and the Activity [30] was 20%. For the same molecule, the Activity [31] was “Dose-dependent effect”, the Activity [32] was “Active” and the pIC50 [33] was 3.40. For the same molecule, the pIC50 [34] was 3.43, the pIC50 [35] was 4.00 and the pIC50 [36] was 4.82.
